The test system of this test is 3T3-L1 adipocytes. Kind of test: Oil Red O lipid content assay in differentiated 3T3-L1 adipocytes. Format: cell-based, mouse. The following applies: 60 μM free resveratrol dissolved in ethanol, 48 hours. As for the experimental part: 3T3-L1 fibroblasts (ATCC), were differentiated into adipocytes following ATCC's protocol, with slight modifications. Briefly, 3T3-L1 cells were seeded in 6 well plates at 80,000 cells/well and cultured in DMEM supplemented with 10% SuperCalf Serum and 1% Pen/Strep. 48 hours after confluence was reached, media was exchanged with “differentiation media” consisting of DMEM supplemented with 10% FBS, 10 μg/mL bovine insulin, 0.25 μM dexamethasone, and 0.5 mM IBMX. 48 hours after differentiation media was added, media was exchanged for DMEM supplemented with 10% FBS and 10 μg/mL bovine insulin. After another 48 hours, media was exchanged for DMEM supplemented with 10% FBS. Cells were then cultured until treatment with particles, which occurred 9 days after exposure to the differentiation media. […] Absorbance of extracted Oil Red O was measured at 500 nm using a spectrophotometer. Bioactivity of the resveratrol following the fabrication process was determined. Specifically, the ability of the resveratrol particles to induce lipolysis in differentiated 3T3-L1 adipocytes was determined by measuring lipid content with an Oil Red O assay. […] Lipid content was visualized with Oil Red O, a lipophilic dye, (FIG. 3 at A-F) and lipid content was quantified by extracting the dye (FIG. 3 at G) and measuring the solution's absorbance (FIG. 3 at H).

Consider `Oc1ccc(/C=C/c2cc(O)cc(O)c2)cc1` [resveratrol, 3,5,4′-trihydroxy-trans-stilbene], for which the “Oil Red O staining (intracellular lipid content)” value is reported as “decreased Oil Red O staining”.

For the origin of these results see US20200262991A1, “Method for Tuning Topology of Polymer Particles” (UNIVERSITY OF SOUTH CAROLINA, priority 2019, published 2020).
